Measured values as given in US11912665B1, “4-(2,4,5-tris(4-chlorophenyl)-1H-imidazol-1-yl)butanoic acid as an antimicrobial compound” (KING FAISAL UNIVERSITY, priority 2023, dated 2024).

Key:
Format in all cases: cell-based
[1] = tested on: Chrysosporium keratinophilum; assay: agar plate disc-diffusion, antifungal activity; conditions: Sabouraud's dextrose agar, 72 hours, DMSO zone subtracted; for inhibition zone Chrysosporium keratinophilum A: A = concentration of comp. = 10,000 μL; for inhibition zone Chrysosporium keratinophilum B: B = concentration of comp. = 30,000 μL; for inhibition zone Chrysosporium keratinophilum C: C = concentration of comp. = 50,000 μL
Protocol: (§1) The agar plate disc-diffusion method was applied. […] The discs were then placed onto the surface of agar plates (nutrient agar for bacteria and Sabouraud's dextrose agar for fungi) seeded with the test organism. Each plate contained 15 mL of the agar medium, previously seeded with 0.2 mL of the broth culture of each organism pregrown for 18 hours. The plates were incubated at 37° C. for 48 hours, and 72 hours for fungi. The inhibition zones were measured in millimeters (mm). Discs impregnated with DMSO were used as a control, and its inhibition zone was subtracted from the tested compound actual inhibition zone.

Aspergillus flavus = assay: agar plate disc-diffusion, antifungal activity; conditions: Sabouraud's dextrose agar, 72 hours, DMSO zone subtracted; for inhibition zone Aspergillus flavus A: A = concentration of comp. = 10,000 μL; for inhibition zone Aspergillus flavus B: B = concentration of comp. = 30,000 μL; for inhibition zone Aspergillus flavus C: C = concentration of comp. = 50,000 μL
Protocol: as §1

Bacillus cereus = assay: agar plate disc-diffusion, antibacterial activity; conditions: nutrient agar, 37° C., 48 hours, DMSO zone subtracted; for inhibition zone Bacillus Cereus B: B = concentration of comp. = 30,000 μL; for inhibition zone Bacillus Cereus C: C = concentration of comp. = 50,000 μL
Protocol: as §1

Staphylococcus aureus = assay: agar plate disc-diffusion, antibacterial activity; conditions: nutrient agar, 37° C., 48 hours, DMSO zone subtracted; for inhibition zone Staphylococcus aureus A: A = concentration of comp. = 10,000 μL; for inhibition zone Staphylococcus aureus B: B = concentration of comp. = 30,000 μL; for inhibition zone Staphylococcus aureus C: C = concentration of comp. = 50,000 μL
Protocol: as §1

Pseudomonas aeruginosa = assay: agar plate disc-diffusion, antibacterial activity; conditions: nutrient agar, 37° C., 48 hours, DMSO zone subtracted; for inhibition zone Pseudomonas aeruginosa A: A = concentration of comp. = 10 mg/mL; for inhibition zone Pseudomonas aeruginosa B: B = concentration of comp. = 30,000 μL; for inhibition zone Pseudomonas aeruginosa C: C = concentration of comp. = 50,000 μL
Protocol: (§2) The agar plate disc-diffusion method was applied. Sterilized filter papers (6 mm in diameter) were wetted with 10 μL of a solution of 4-(2,4,5-tris(4-chlorophenyl)-1H-imidazol-1-yl)butanoic acid (V) to be tested, containing 10 mg/mL in DMSO, and the discs were allowed to air dry. The discs were then placed onto the surface of agar plates (nutrient agar for bacteria and Sabouraud's dextrose agar for fungi) seeded with the test organism. Each plate contained 15 mL of the agar medium, previously seeded with 0.2 mL of the broth culture of each organism pregrown for 18 hours. The plates were incubated at 37° C. for 48 hours, and 72 hours for fungi. The inhibition zones were measured in millimeters (mm). Discs impregnated with DMSO were used as a control, and its inhibition zone was subtracted from the tested compound actual inhibition zone.

Escherichia coli = assay: agar plate disc-diffusion, antibacterial activity; conditions: nutrient agar, 37° C., 48 hours, DMSO zone subtracted; for inhibition zone Escherichia coli A: A = concentration of comp. = 10,000 μL; for inhibition zone Escherichia coli B: B = concentration of comp. = 30,000 μL; for inhibition zone Escherichia coli C: C = concentration of comp. = 50,000 μL
Protocol: as §2

| SMILES | inhibition zone Chrysosporium keratinophilum A [1] | inhibition zone Chrysosporium keratinophilum B [1] | inhibition zone Chrysosporium keratinophilum C [1] | inhibition zone Aspergillus flavus A (Aspergillus flavus) | inhibition zone Aspergillus flavus B (Aspergillus flavus) | inhibition zone Aspergillus flavus C (Aspergillus flavus) | inhibition zone Bacillus Cereus A (Bacillus cereus) | inhibition zone Bacillus Cereus B (Bacillus cereus) | inhibition zone Bacillus Cereus C (Bacillus cereus) | inhibition zone Staphylococcus aureus A (Staphylococcus aureus) | inhibition zone Staphylococcus aureus B (Staphylococcus aureus) | inhibition zone Staphylococcus aureus C (Staphylococcus aureus) | inhibition zone Pseudomonas aeruginosa A (Pseudomonas aeruginosa) | inhibition zone Pseudomonas aeruginosa B (Pseudomonas aeruginosa) | inhibition zone Pseudomonas aeruginosa C (Pseudomonas aeruginosa) | inhibition zone Escherichia coli A (Escherichia coli) | inhibition zone Escherichia coli B (Escherichia coli) | inhibition zone Escherichia coli C (Escherichia coli) |
| --- | --- | --- | --- | --- | --- | --- | --- | --- | --- | --- | --- | --- | --- | --- | --- | --- | --- | --- |
| O=C(O)CCCn1c(-c2ccc(Cl)cc2)nc(-c2ccc(Cl)cc2)c1-c1ccc(Cl)cc1 [V, 4-(2,4,5-tris(4-chlorophenyl)-1H-imidazol-1-yl)butanoic acid] | 25 mm | 28 mm | 49 mm | 16 mm | 22 mm | 36 mm | 19 mm | 25 mm | 40 mm | 14 mm | 19 mm | 26 mm | 26 mm | 31 mm | 46 mm | 24 mm | 35 mm | 51 mm |
| O=C(O)c1cn(C2CC2)c2cc(N3CCNCC3)c(F)cc2c1=O [Cip., ciprofloxacin] | 29 mm | 30 mm | 53 mm | 29 mm | 30 mm | 42 mm | 29 mm | 31 mm | 42 mm | 42 mm | 44 mm | 53 mm | 29 mm | 30 mm | 53 mm | 30 mm | 39 mm | 60 mm |
